Assay results reported in patent US20070186288A1, “Zebrafish models of acute myelogenous leukemia” (priority 2005, published 2007).
“Also recorded” adds a separate entry of the source. Like-named read-outs stand apart in the source and are kept apart here.

Key:
[1] = system: AML1-ETO phenotype in Tg(hsp:AML1-ETO) zebrafish embryos; assay type: in vivo; details: for percentage of AML1-ETO-expressing embryos without circulating blood: 500 μM morpholino solution injected into 1-cell stage embryos, heat treated at 4, 16, 24 hpf, scored at 44 hpf, non-injected control 90.2%
Procedure: The Petri dishes containing zebrafish embryos were transferred from the growth temperature of 23-28.5° C. to a 37-42° C. incubator and incubated for 1 hour before returning them back to the normal temperature. The heat treatment may be repeated three to four times over 12-hour intervals as specified below. The percentages of embryos with phenotype were scored by visual inspection of the loss of circulating blood in the embryos after 40 hpf.
The morpholino antisense oligonucleotides hAML1-MO (5′-[…]; SEQ ID NO:3), which targets the translation start codon of human AML1, and zTIS11b-MO (5′-[…]; SEQ ID NO:4), which targets the splice donor site of zebrafish TIS11b transcripts, were obtained from Gene-Tools, LLC. For microinjection, 500 μM hAML1-MO or 200 μM zTIS11b-MO in 0.3× Danieau's buffer (17 mM NaCl, 2 mM KCl, 0.12 mM MgSO4, 1.8 mM Ca(NO3)2 and 1.5 mM HEPES, pH 7.6) were prepared and injected as described (Nasevicius et al., Nat. Genet. 26:216-220, 2000).
In AML1-ETO-expressing fish, the absence of circulating cells and the accumulation of non-circulating hematopoietic cells in the ICM are readily detected by eye. Therefore, circulation may be a simple surrogate phenotype for detecting the presence or absence of the AML1-ETO phenotype. To confirm that the loss-of-circulation phenotype is dependent on the inducible expression of AML1-ETO in the transgenic zebrafish, we tested whether this phenotype can be rescued by blocking AML1-ETO expression using an antisense morpholino oligonucleotide (hAML1-MO) complementary to the translation start site of the human AML1-ETO mRNA. Homogeneous transgenic embryo clutches were obtained from crosses between homozygous Tg(hsp:AML1-ETO) and wild-type fish. These embryos were heat treated at 4, 16, and 24 hpf, and were then scored at 44 hpf. […] On the other hand, in the heat-treated Tg(hsp:AML1-ETO) fish embryos, most of the blood cells accumulate in the ICM, especially at the location close to the end of the yolk extension, and fail to enter circulation. However, injection of HAML1-MO into 1-cell stage embryos restores the circulation in the transgenic embryos.
Zebrafish embryos readily absorb small molecules from the surrounding medium, rendering them a powerful tool to assess pharmacological efficacy (Peterson et al., Methods Cell. Biol. 76:569-591, 2004; Zon et al., Nat. Rev. Drug Discov. 4:35-44, 2005). […] While ATRA is generally not very effective in differentiating t(8;21) leukemic cells, complete remission of a patient with t(8;21) translocation has been reported (Chen et al., Chin. Med. J. (Engl). 115:58-61, 2002). We tested the efficacy of ATRA in reversing the zebrafish AML1-ETO phenotype. In this experiment, we heat-shocked the embryos three times instead of four times at 37° C. in order to reduce the phenotypic penetrance in the Tg(hsp:AML1-ETO) fish embryos to around 80%. Meanwhile, ATRA was added at 24 hpf.
The upregulation of TIS11b had been hypothesized to contribute to AML pathogenesis, but this hypothesis had not been tested. To elucidate the role of TIS11b in the AML1-ETO phenotype, we knocked down TIS11b by injecting an antisense morpholino oligonucleotide complementary to the […] of the zebrafish TIS11b gene (zTIS11b-MO).

[2] = system: hematopoietic cells of Tg(hsp:AML1-ETO) zebrafish embryos; test: Cytology (Wright-Giemsa) of blood extracted from Tg(hsp:AML1-ETO) embryos; assay type: in vivo; details: 200 μM morpholino solution injected; mild heat treatment
From the text: Blood cells were collected from anesthetized wild-type and AML1-ETO embryos at 40 hpf by transferring live fish to phosphate buffered saline containing 50 U/ml heparin, 1% bovine serum albumin, and 0.006% tricaine. Tails were excised posterior to the yolk extension (at approximately the site of the posterior ICM) using a scalpel. Blood cells were extruded from the site of excision using the blunt edge of the scalpel and collected using a micropipette.
For cytological analyses, blood cells collected from the zebrafish embryos were transferred onto glass slides by cytospin and stained by Protocol® Wright-Giemsa stain (Fisher Diagnostics) following manufacturer's instruction. To label red blood cells in the zebrafish embryos, whole-mount cytochemistry staining with […] was performed as previously described (Weinstein et al., Development 123:303-309, 1996).

CC1=C(/C=C/C(C)=C/C=C/C(C)=C/C(=O)O)C(C)(C)CCC1 [ATRA, all-trans retinoic acid]
percentage of embryos possessing circulation ([1]; 10 pM added at 24 hpf, three 1-hour 37° C. heat treatments at 4, 16, 24 hpf, scored at 40 hpf, vehicle 20%, p=0.0085): 36% | degree of rescue at higher concentrations ([1]; concentrations above 10 pM (range tested 1 pM to 1 nM)): did not increase

hAML1-MO: morpholino antisense oligonucleotide 5′-CTGGCATCTACGGGGATACGCATCA (SEQ ID NO:3), targets the translation start codon of human AML1 (all phosphorodiamidate morpholino (PMO); listed as Homo sapiens)
percentage of AML1-ETO-expressing embryos without circulating blood [1]: less than 10% | percentage of AML1-ETO-expressing embryos without circulating blood ([1]; listed as HAML1-MO): 6.7%

zTIS11b-MO: morpholino antisense oligonucleotide 5′-ACTTTTCTCCATACCTTGTTGTTGA (SEQ ID NO:4), targets the splice donor site of zebrafish TIS11b transcripts (all phosphorodiamidate morpholino (PMO))
percentage of injected Tg(hsp:AML1-ETO) embryos exhibiting the AML1-ETO (lack of circulation) phenotype ([1]; 200 μM morpholino solution injected, mild heat treatment, uninjected less than 30%): 98% | blast cells in blood of injected Tg(hsp:AML1-ETO) embryos by cytological analysis [2]: accumulation of hematopoietic blast cells; also recorded: abundant immature blast-like cells
